Reference: patent publication US4816438A, “Insulin-selective somatostatin analogs” (The Salk Institute for Biological Studies, priority 1987, dated 1989)
Where a SMILES comes first, the peptide text is derived from it. Bridges are numbered along the chain shown (N, C = ends).

Tests used:
[1] = test system: cells of rat pituitary glands; test: in vitro radioimmunoassays of growth hormone release from cultured rat pituitary cells, side-by-side with somatostatin-14; type: cell-based; details: comparative testing in rat pituitary cell cultures
Protocol: To determine the effectiveness of the peptides to inhibit the release of insulin, in vitro radioimmunoassays are carried out using aSS-28, [Lys^23 ]-aSS-28 and aSS(15-28) in side-by-side comparison with equimolar concentrations of somotostatin-14 having a known effectiveness to inhibit the release of growth hormone induced by the application of isobutyl methyl xanthine to pituitary cells. Cultures are used which include cells of rat pituitary glands removed some four to five days previously in a system that minimizes enzymatic degradation, generally following the procedure set forth in Vale et al., Methods in Enzymology, Hormones and Cyclic Nucleotides (1975) Vol. 37, p. 82. Both cultures of a defined standard medium and cultures which are considered optimal for the secretion of growth hormone, as a result of having additions of either 2% or 10% of serum from a foetal calf, are used for the comparative testing.

[2] = synthetic SS-28; literature report; cited from earlier work

Molecule | biological activity / potency relative to aSS-28 [1] | potency when administered in vivo [2]
CC(C)C[C@H](NC(=O)[C@H](CC(N)=O)NC(=O)[C@H](CC(N)=O)NC(=O)[C@@H](NC(=O)[C@H](CO)NC(=O)[C@H](CC(=O)O)NC(=O)[C@@H](NC(=O)[C@@H](N)CO)C(C)C)[C@@H](C)O)C(=O)N1CCC[C@H]1C(=O)N1CCC[C@H]1C(=O)N[C@@H](CCCNC(=N)N)C(=O)N[C@@H](CCC(=O)O)C(=O)N[C@@H](CCCNC(=N)N)C(=O)N[C@@H](CCCCN)C(=O)N[C@@H](C)C(=O)NCC(=O)N[C@H]1CSSC[C@@H](C(=O)O)NC(=O)[C@H](CO)NC(=O)[C@H]([C@@H](C)O)NC(=O)[C@H](Cc2ccccc2)NC(=O)CNC(=O)[C@H](CCCCN)NC(=O)[C@H](Cc2c[nH]c3ccccc23)NC(=O)[C@H](Cc2ccc(O)cc2)NC(=O)[C@H](Cc2ccccc2)NC(=O)[C@H](CC(N)=O)NC(=O)[C@H](CCCCN)NC1=O [[Lys^23]-aSS-28] (H-SVDSTNNLPPRERKAGCKNFYWKGFTSC-OH; disulfide 17-28) | similarly biologically active although having somewhat lower potencies | –
somatostatin-28 [SS-28] | – | increased potency
